This note sets out measurements from US12378263B2, “Modulators of sestrin-GATOR2 interaction and uses thereof” (Navitor Pharmaceuticals, Inc., priority 2015, dated 2025).

One assay addresses T1, GATOR2/Sestrin2 complexes (Homo sapiens, UniProt P58004).
T1 construct: The Flag-WDR24/endogenous-Sestrin2 complex was isolated as follows; expressed in transfected cells; host or cells: HEK293T cells stably expressing FLAG-WDR24 (lentiviral vector pLJM60); Sestrin2 and the remaining GATOR2 subunits are endogenous
T1 sequence (P58004 1-480): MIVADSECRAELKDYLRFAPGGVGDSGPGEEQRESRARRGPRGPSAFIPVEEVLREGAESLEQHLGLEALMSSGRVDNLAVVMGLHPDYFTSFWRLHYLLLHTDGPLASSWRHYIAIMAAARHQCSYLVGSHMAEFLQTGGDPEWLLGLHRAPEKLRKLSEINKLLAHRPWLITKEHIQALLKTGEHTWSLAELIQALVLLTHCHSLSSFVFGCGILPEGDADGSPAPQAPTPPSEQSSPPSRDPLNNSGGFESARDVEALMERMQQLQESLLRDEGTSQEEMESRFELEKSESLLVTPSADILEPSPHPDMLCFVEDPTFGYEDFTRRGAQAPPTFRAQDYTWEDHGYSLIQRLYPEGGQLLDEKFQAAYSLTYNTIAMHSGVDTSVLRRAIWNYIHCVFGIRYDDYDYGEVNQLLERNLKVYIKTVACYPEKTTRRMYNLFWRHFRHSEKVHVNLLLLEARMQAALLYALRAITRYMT
As to the kind of experiment: In vitro PPI assay (Method 1): Sestrin2 bound to GATOR2, western blot, % activity relative to leucine. The note with it: compound at 25 μM; leucine 25 μM = 100% activity; duplicate. Type of assay: binding. The source says:
This screening assay measured test compound activity in vitro on GATOR2/Sestrin2 complexes purified via immunoprecipitation of stably expressed FLAG-WDR24 from HEK293T cells. HEK293T cells (293 Ts) were engineered to stably express N-terminally tagged FLAG-WDR24 via transduction by lentivirus. Lentiviruses were produced by co-transfection of the lentiviral transfer vector pLJM60 with the […] into HEK-293T cells using the XTremeGene 9 transfection reagent (Roche Diagnostics). The media was changed 24 hours post-transfection to Dulbecco's Modified Eagle's media (DMEM) supplemented with 30% Inactivated Fetal Serum. The virus-containing supernatants were collected 48 and 72 hours after transfection and passed through a 0.45 μm filter to eliminate cells. Target cells in 6-well tissue culture plates were infected in media containing 8 μg/mL polybrene and spin infections were performed by centrifugation at 2,200 rpm for 1 hour. Twenty-four hours after infection, the virus was removed and the cells selected with the appropriate antibiotic. Cells were then grown in DMEM supplemented with 10% fetal bovine serum and antibiotics.
Seventy-two hours later, cells were placed in standard RPMI media formulated with no amino acids and supplemented with 5 mM Glucose (−AA RPMI, US Biological Life Sciences) for 1 hour then subsequently lysed in lysis buffer (40 mM HEPES, 1% Triton, 10 mM sodium β-glycerophosphate, 10 mM sodium pyrophosphate, 2.5 mM MgCl2 and protease inhibitors). […]
The resulting western blots were scanned and band intensities corresponding to Sestrin2 and FLAG-WDR24 were quantified using the LI-COR® imaging platform. […]
This screening assay measured compound activity in vitro on GATOR2/Sestrin2 complexes purified via immunoprecipitation of stably expressed Flag-WDR24 from HEK293T cells. […]
Take `CC(C)C[C@H](N)C(=O)NC(C)(C)C` [Example I-165]: the “Activity of Leucine: % Activity” value is given as “A to C”.
On to `CC(C)CCC(N)C(=O)O` (stereo not drawn) [Example I-41], for which the “Activity of Leucine: % Activity” value is “A (% activity relative to leucine of ≥40%)”.
Regarding `CC(C)C[C@H](N)S(=O)(=O)O` [Example I-157], the “Activity of Leucine: % Activity” value is on record as “B to C”.

Another assay has as its system mTORC1. Description: Cell-based mTORC1 activation (Method 2), western blot of phosphorylated S6 Kinase and 4EBP1 in HEK293T cells. Particulars: 100 μM; shift relative to DMSO control; HEK293T cells after leucine starvation. As for the experimental part: Briefly, 800,000 HEK293T cells were plated in each well of a 6-well plate in DMEM supplemented with 10% fetal bovine serum and antibiotics. […] Cells were then lysed, processed for SDS-PAGE and western blotting was performed with antibodies directed against the mTORC1 substrates phosphorylated S6 Kinase (Thr389) and phosphorylated 4EBP1 (Thr37/46) (Cell Signaling Technology) and loading controls (beta-actin, Santa Cruz Biotechnology) as described in Kang, S. A., et al. Science 341(6144): 364-374 (2013). The intensity of the bands corresponding to the phosphorylated substrates were then normalized to the actin band using the LI-COR® imaging platform.
In general terms: Immunoblotting shows a protein as a band on a membrane.
Regarding `N[C@H](CCCC(F)(F)F)C(=O)O` [Example I-9, (R)-2-amino-6,6,6-trifluorohexanoic acid], the “Cell-Based mTORC1 Activation” value was “E (a shift relative to DMSO of 2.1-5 fold)”.
On to `CC(C)C(F)(F)[C@@H](N)C(=O)O` [Example I-47, (S)-2-amino-3,3-difluoro-4-methylpentanoic acid], for which the “Cell-Based mTORC1 Activation” value is “D (a shift relative to DMSO control of 0.5 to 2 fold)”.
Still for that read-out and setting: for `CC(C)C(F)(F)[C@H](N)C(=O)O` [Example I-46, (R)-2-amino-3,3-difluoro-4-methylpentanoic acid] the value was “D (a shift relative to DMSO control of 0.5 to 2 fold)”.
Regarding `C[C@H](CC(N)C(=O)O)C(F)(F)F` (stereo in doubt) [Example I-167, (2R,4R)-2-amino-5,5,5-trifluoro-4-methylpentanoic acid], the “Cell-Based mTORC1 Activation” value was “D to F”.
Take `CC(C)C[C@H](N)C(=O)O` [Example I-44]: the “Cell-Based mTORC1 Activation” value was “D (a shift relative to DMSO control of 0.5 to 2 fold)”.
Take `CC(C)C[C@H](N)C(N)=O.Cl` [Example I-23]: the “Cell-Based mTORC1 Activation” value is “D to F”.
On the same count and under the same terms, to `COC(=O)[C@@H](N)CC(C)C` [Example I-168] belongs “D to E”; to `CC(C)(C)C[C@H](N)C(=O)O` [Example I-43], “D to E”.
For `N[C@@H](CC1CCC1)C(=O)O` [Example I-37], the “Cell-Based mTORC1 Activation” value was “E to F”.
As for `NC(CCCC(F)(F)F)C(=O)O` (stereo not drawn) [Example I-42], the “Cell-Based mTORC1 Activation” value is “D to F”.

The same assay, now with this note: 30 and 100 μM; shift relative to DMSO control; HEK293T cells after leucine starvation.
Take `CC(C)C[C@@H](N)B1OC(C)(C)C(C)(C)O1` [Example I-10]: the “Cell-Based mTORC1 Activation” value is listed as “D (a shift relative to DMSO control of 0.5 to 2 fold)”.

Another assay addresses T2, Sestrin2 (Homo sapiens, UniProt P58004).
T2 construct: crude lysate generated from a human cell line; endogenous in cells; host or cells: Unnamed human cell line (crude lysate)
T2 sequence (P58004 1-480): T1 sequence (P58004 1-480)
Description: Indirect ligand binding assay (ILBA, Method 7), immunoprecipitation with CST anti-Sestrin2 antibody. Particulars: crude lysate of amino acid starved human cell line, 1 hour incubation. As to the method: Conversely, compounds that destabilized Sestrin2 as measured by thermal shift assay increased the affinity of the CST antibody for non-denatured Sestrin2. […] In one version, the assay was performed with crude lysate generated from a human cell line after a 1-hour period of amino acid starvation (cells are lysed in 1% Triton, 10 mM beta-glycerol phosphate, 10 mM sodium pyrophosphate, 40 mM HEPES [pH 7.4], 150 mM NaCl and 2.5 mM MgCl2). […] After compound incubation, samples were subjected to immunoprecipitation with the CST anti-Sestrin2 antibody for 1.5 hours followed by a 30-minute incubation with protein-A sepharose as described in L. Chantranupong, et al., Cell Reports 9:1-8 (2014). The sepharose conjugated antibody-protein complex was precipitated via centrifugation and the flow-through was subjected to a second round of immunoprecipitation with a rabbit polyclonal anti-Sestrin2 antibody (Protein Tech, #10795-1-AP) to determine that total Sestrin2 protein levels between samples were equal. SDS-PAGE was performed with the immunoprecipitation samples followed by western-blot with the mouse monoclonal anti-Sestrin2 antibody from SIGMA (cat #WH0083667M3). […] This version of the assay also measured increased instability of Sestrin2 induced by incubation with compounds.
Take `CC(C)C[C@H](N)C(=O)O` [leucine]: the “decrease in the intensity of the band corresponding to Sestrin2 (CST antibody immunoprecipitation)” value is reported as ≥ 50%.
